# Assays:
# Test in all cases: MIC determination, broth microdilution
# Format in all cases: cell-based
# K. pneumoniae 700603 = settings: Klebsiella pneumoniae, 37° C., 18-24 hours, read-out: Strain 4 MIC
# Method: (§1) Compounds of this invention were tested for antimicrobial activity by determining minimum inhibitory concentrations (MICs, in μg/mL) using the broth microdilution method according to the guidelines of the Clinical Laboratories and Standards Institute (“Methods for Dilution Antimicrobial Susceptibility Tests for Bacteria that Grow Aerobically”, Approved standard, 7th ed., Clinical and Laboratory Standards Institute (CLSI) Document M7-A8, Wayne, Pa., USA, 2009.). Test compounds were dissolved in DMSO. The compounds were then diluted in microbial growth medium (Mueller Hinton Broth II, cation adjusted) resulting in a final concentration range of 0.063-64 μg/mL in serial two-fold dilution. In all cases the final DMSO concentration was less than 0.5%. Bacteria were added to 96-well microtitre plates containing the two-fold dilutions of the compounds; the final cell density was approximately 5×10^5 colony forming units/mL (CFU/mL). Plates were incubated at 37° C. for 18-24 hours and read visually. The MIC, i.e. the lowest concentration of the test compound that inhibited visible growth of the bacteria, was recorded. The same assay conditions were used when the compounds of this invention were tested in combination with—lactamase inhibitors. While the compounds of this invention were serially diluted as described above, a constant concentration of the inhibitor of 4 mg/L was used. Bacterial strains that were used to evaluate the antimicrobial activity using the MIC determination included but were not limited to E. coli clinical isolate, E. coli 8739, K. pneumoniae clinical isolate, K. pneumoniae 700603, E. cloacae clinical isolate, E. cloacae 700323, A. baumannii clinical isolate, A. baumannii 19606, P. aeruginosa clinical isolate, P. aeruginosa 9027.
# E. cloacae 700323 = settings: Enterobacter cloacae, 37° C., 18-24 hours, read-out: Strain 6 MIC
# Method: as §1
# [1] = test system: K. pneumoniae clinical isolate; settings: Klebsiella pneumoniae, 37° C., 18-24 hours, read-out: Strain 3 MIC
# Method: as §1
# [2] = test system: P. aeruginosa clinical isolate; settings: Pseudomonas aeruginosa, 37° C., 18-24 hours, read-out: Strain 9 MIC
# Method: as §1
# [3] = test system: A. baumannii clinical isolate; settings: Acinetobacter baumannii, 37° C., 18-24 hours, read-out: Strain 7 MIC
# Method: as §1
# [4] = test system: E. cloacae clinical isolate; settings: Enterobacter cloacae, 37° C., 18-24 hours, read-out: Strain5 MIC
# Method: as §1
# E. coli 8739 = settings: Escherichia coli, 37° C., 18-24 hours, read-out: Strain 2 MIC
# Method: as §1
# E. coli clinical isolate = settings: Escherichia coli, 37° C., 18-24 hours, read-out: Strain 1 MIC
# Method: as §1
# P. aeruginosa 9027 = settings: Pseudomonas aeruginosa, 37° C., 18-24 hours, read-out: Strain 10 MIC
# Method: as §1
# A. baumannii 19606 = settings: Acinetobacter baumannii, 37° C., 18-24 hours, read-out: Strain8 MIC
# Method: as §1
MIC (K. pneumoniae 700603) [µg/mL],MIC (E. cloacae 700323) [µg/mL],MIC [1] [µg/mL],MIC [2] [µg/mL],MIC [3] [µg/mL],MIC [4] [µg/mL],MIC (E. coli 8739) [µg/mL],MIC (E. coli clinical isolate) [µg/mL],MIC (P. aeruginosa 9027) [µg/mL],MIC (A. baumannii 19606) [µg/mL],Structure (SMILES)
1,4,1,2,8,2,0.25,1,2,8,"CC1(C)[C@H](NC(=O)/C(=N\O[C@@H](COc2ccc(C(=N)N[C@@H]3CCNC3)cc2)C(=O)O)c2nc(N)sc2Cl)C(=O)N1OS(=O)(=O)O [Example 10, (S)-2-((((Z)-1-(2-Amino-5-chlorothiazol-4-yl)-2-(((S)-2,2-dimethyl-4-oxo-1-(sulfooxy)azetidin-3-yl)amino)-2-oxoethylidene)amino)oxy)-3-(4-(N—((R)-pyrrolidin-3-yl)carbamimidoyl)phenoxy)propanoic acid]"
64,64,32,4,16,32,0.5,0.5,2,32,"CC1(C)[C@H](NC(=O)/C(=N\O[C@@H](COc2ccc(C(=N)N[C@H]3CCCNC3)cc2)C(=O)O)c2nc(N)sc2Cl)C(=O)N1OS(=O)(=O)O [Example 11, (S)-2-((((Z)-1-(2-Amino-5-chlorothiazol-4-yl)-2-(((S)-2,2-dimethyl-4-oxo-1-(sulfooxy)azetidin-3-yl)amino)-2-oxoethylidene)amino)oxy)-3-(4-(N—((S)-piperidin-3-yl)carbamimidoyl)phenoxy)propanoic acid]"
8,8,4,2,16,8,1,8,2,8,"CC1(C)[C@H](NC(=O)/C(=N\O[C@@H](COc2ccc(C(=N)N[C@@H]3CCNC3)cc2)C(=O)O)c2nsc(N)n2)C(=O)N1OS(=O)(=O)O [Example 12, (S)-2-((((Z)-1-(5-Amino-1,2,4-thiadiazol-3-yl)-2-(((S)-2,2-dimethyl-4-oxo-1-(sulfooxy)azetidin-3-yl)amino)-2-oxoethylidene)amino)oxy)-3-(4-(N—((R)-pyrrolidin-3-yl)carbamimidoyl)phenoxy)propanoic acid]"

# Source: patent publication US20230295149A1, “MONOBACTAM COMPOUNDS, THEIR PREPARATION AND USE AS ANTIBACTERIAL AGENTS” (NINGXIA ACADEMY OF AGRICULTURE AND FORESTRY SCIENCES, priority 2020, published 2023)
